Assay results from patent publication US12479847B2 (DANA-FARBER CANCER INSTITUTE, INC., priority 2019, dated 2025).
Read-outs that look alike come from different tables or passages of the source.

How the values were obtained:
Test in all cases: KINOMEscan (ScanMAX) kinase profiling
Type in all cases: binding
panel of 468 kinases [1] = target: T1, panel of 468 kinases (Homo sapiens, UniProt O75385); settings: ULK1; 1 μM; read-out: % control
T1 construct: purchased KINOMEscan (ScanMAX) service
T1 sequence (O75385 1-1050): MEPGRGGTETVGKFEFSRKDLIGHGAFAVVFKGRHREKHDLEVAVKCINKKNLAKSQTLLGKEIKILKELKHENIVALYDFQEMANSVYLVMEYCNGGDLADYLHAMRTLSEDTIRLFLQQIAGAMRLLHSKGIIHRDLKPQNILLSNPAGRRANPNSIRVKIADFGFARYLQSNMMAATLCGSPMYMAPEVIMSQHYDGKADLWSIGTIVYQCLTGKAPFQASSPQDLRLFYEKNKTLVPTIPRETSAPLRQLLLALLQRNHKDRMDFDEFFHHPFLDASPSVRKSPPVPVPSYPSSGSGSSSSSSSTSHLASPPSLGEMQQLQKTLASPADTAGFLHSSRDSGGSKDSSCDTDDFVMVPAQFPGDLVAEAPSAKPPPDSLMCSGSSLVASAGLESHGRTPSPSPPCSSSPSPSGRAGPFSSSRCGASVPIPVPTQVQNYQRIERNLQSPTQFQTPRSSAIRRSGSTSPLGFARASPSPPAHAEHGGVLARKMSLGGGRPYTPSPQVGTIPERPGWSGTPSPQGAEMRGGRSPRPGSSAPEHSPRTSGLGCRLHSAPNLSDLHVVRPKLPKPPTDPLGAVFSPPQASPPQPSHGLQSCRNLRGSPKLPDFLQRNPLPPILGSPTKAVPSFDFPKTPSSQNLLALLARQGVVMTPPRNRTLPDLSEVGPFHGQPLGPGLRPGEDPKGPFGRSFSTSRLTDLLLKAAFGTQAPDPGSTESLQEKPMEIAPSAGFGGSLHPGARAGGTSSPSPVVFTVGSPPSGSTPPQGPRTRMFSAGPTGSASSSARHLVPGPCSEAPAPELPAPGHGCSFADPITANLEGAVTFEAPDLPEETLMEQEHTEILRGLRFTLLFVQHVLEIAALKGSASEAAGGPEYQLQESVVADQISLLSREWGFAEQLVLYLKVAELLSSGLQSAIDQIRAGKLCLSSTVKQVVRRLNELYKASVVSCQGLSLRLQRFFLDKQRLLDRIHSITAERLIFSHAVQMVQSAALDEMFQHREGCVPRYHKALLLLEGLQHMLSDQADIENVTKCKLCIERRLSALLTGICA

panel of 468 kinases [2] = target: T2, panel of 468 kinases (Homo sapiens, UniProt O75582); settings: 1 μM, read-out: % control
T2 construct: purchased KINOMEscan (ScanMAX) service

panel of 468 kinases [3] = target: T3, panel of 468 kinases (Homo sapiens, UniProt P08581); settings: MET; 1 μM; read-out: % control
T3 construct: purchased KINOMEscan (ScanMAX) service
T3 sequence (P08581 25-1390): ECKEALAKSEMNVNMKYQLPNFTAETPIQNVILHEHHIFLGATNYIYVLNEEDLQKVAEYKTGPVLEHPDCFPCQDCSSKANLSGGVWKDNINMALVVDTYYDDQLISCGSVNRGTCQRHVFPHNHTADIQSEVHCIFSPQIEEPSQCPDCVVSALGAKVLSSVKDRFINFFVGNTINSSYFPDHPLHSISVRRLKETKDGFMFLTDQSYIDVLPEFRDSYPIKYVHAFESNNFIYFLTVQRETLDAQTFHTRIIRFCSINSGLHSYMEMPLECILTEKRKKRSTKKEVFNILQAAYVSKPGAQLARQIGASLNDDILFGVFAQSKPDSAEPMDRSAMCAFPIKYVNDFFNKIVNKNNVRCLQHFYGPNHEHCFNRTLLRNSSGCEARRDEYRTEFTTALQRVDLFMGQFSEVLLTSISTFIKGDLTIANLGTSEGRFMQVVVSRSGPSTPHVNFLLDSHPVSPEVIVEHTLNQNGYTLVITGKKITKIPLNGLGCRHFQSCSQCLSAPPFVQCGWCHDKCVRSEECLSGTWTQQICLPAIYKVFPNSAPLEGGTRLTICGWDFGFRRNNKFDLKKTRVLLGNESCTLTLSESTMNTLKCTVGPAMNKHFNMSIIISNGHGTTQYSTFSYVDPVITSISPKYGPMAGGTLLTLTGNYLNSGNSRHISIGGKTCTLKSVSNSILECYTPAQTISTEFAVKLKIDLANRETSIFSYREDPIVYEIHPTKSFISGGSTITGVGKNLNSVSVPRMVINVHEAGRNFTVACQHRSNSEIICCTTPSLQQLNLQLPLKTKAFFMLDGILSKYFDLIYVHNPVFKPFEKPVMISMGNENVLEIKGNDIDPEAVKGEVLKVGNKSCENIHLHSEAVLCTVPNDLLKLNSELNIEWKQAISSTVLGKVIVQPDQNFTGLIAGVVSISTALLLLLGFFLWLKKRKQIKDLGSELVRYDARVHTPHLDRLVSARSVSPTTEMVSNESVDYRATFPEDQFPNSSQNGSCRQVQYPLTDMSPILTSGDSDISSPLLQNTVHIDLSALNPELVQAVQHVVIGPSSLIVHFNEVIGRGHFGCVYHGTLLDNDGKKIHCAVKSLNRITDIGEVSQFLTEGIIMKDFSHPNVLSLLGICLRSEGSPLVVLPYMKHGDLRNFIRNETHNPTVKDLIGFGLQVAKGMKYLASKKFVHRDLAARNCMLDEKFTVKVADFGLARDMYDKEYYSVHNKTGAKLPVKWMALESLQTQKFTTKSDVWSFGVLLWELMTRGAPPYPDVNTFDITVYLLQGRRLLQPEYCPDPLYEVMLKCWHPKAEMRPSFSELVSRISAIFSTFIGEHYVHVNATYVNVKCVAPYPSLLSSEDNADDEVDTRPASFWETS

panel of 468 kinases [4] = target: T4, panel of 468 kinases (Homo sapiens, UniProt P28482); settings: ERK2; 1 μM; read-out: % control
T4 construct: purchased KINOMEscan (ScanMAX) service
T4 sequence (P28482 whole entry): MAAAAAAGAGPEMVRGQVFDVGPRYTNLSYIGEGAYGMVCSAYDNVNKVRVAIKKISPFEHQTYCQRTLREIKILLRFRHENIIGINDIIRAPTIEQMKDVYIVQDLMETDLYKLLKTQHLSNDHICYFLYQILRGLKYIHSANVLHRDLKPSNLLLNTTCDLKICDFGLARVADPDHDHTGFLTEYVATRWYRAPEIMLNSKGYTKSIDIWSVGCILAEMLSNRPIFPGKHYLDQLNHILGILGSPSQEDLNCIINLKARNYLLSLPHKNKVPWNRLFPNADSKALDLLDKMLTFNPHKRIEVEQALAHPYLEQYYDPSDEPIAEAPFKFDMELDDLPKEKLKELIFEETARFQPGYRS

panel of 468 kinases [5] = target: T5, panel of 468 kinases (Homo sapiens, UniProt P37173); settings: TGFBR2; 1 μM; read-out: % control
T5 construct: purchased KINOMEscan (ScanMAX) service
T5 sequence (P37173 23-567): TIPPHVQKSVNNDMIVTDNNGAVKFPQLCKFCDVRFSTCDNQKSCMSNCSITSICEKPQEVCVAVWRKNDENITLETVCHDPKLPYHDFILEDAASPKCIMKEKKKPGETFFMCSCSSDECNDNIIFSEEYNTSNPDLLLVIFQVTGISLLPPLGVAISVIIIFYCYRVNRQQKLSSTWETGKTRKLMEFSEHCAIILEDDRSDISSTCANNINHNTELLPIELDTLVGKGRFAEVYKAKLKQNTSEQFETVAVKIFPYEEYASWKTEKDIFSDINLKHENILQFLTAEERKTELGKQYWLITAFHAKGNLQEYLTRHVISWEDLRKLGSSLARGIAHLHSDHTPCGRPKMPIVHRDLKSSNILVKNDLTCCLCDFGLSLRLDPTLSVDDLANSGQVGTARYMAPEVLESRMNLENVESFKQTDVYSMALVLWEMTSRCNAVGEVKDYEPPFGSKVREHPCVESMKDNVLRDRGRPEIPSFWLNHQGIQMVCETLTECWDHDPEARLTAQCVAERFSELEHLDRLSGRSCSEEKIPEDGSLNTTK

panel of 468 kinases [6] = target: T6, panel of 468 kinases (Homo sapiens, UniProt Q13163); settings: MEK5; 1 μM; read-out: % control
T6 construct: purchased KINOMEscan (ScanMAX) service
T6 sequence (Q13163 1-448): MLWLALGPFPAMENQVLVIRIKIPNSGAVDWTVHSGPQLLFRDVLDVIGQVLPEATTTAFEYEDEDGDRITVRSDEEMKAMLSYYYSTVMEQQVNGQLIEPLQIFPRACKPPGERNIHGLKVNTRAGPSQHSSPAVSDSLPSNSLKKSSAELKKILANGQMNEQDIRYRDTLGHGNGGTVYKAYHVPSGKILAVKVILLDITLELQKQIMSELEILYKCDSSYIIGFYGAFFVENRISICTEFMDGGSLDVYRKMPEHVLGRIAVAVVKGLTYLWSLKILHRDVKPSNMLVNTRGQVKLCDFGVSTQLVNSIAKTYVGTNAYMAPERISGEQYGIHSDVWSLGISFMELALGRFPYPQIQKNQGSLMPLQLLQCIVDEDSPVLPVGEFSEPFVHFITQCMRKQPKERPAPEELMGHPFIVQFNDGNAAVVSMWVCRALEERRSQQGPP

panel of 468 kinases [7] = target: T7, panel of 468 kinases (Homo sapiens, UniProt Q14680); settings: MELK; 1 μM; read-out: % control
T7 construct: purchased KINOMEscan (ScanMAX) service
T7 sequence (Q14680 whole entry): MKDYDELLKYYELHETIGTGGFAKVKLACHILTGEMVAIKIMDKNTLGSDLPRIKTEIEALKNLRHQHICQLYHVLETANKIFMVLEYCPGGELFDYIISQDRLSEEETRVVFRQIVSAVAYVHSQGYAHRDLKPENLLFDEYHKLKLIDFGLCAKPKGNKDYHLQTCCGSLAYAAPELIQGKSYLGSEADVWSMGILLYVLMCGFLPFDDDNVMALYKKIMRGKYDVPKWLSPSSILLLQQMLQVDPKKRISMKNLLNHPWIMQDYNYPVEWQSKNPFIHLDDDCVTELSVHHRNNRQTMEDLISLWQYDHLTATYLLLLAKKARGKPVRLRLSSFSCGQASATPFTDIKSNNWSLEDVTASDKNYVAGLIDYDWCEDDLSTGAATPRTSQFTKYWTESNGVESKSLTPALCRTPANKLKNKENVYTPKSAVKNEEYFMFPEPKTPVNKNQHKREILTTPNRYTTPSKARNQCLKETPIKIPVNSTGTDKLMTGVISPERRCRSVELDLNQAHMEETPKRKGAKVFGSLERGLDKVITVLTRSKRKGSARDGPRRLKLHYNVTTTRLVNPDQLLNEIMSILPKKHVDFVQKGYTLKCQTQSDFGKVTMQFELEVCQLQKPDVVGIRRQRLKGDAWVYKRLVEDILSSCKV

panel of 468 kinases [8] = target: T8, panel of 468 kinases (Homo sapiens, UniProt Q15831); settings: LKB1; 1 μM; read-out: % control
T8 construct: purchased KINOMEscan (ScanMAX) service
T8 sequence (Q15831 1-433): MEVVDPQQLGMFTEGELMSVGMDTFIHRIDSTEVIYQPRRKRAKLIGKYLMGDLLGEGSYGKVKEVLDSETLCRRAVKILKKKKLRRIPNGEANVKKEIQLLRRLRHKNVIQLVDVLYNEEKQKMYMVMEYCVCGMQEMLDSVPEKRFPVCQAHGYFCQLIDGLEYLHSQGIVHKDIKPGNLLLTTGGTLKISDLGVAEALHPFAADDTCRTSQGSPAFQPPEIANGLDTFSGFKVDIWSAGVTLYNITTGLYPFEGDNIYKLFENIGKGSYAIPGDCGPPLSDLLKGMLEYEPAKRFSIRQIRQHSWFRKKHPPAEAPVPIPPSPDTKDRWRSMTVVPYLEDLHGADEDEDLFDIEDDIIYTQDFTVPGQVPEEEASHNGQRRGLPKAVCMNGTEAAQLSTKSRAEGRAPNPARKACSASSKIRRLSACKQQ

panel of 468 kinases [9] = target: T9, panel of 468 kinases (Homo sapiens, UniProt Q9NSY1); settings: BIKE; 1 μM; read-out: % control
T9 construct: purchased KINOMEscan (ScanMAX) service
T9 sequence (Q9NSY1 whole entry): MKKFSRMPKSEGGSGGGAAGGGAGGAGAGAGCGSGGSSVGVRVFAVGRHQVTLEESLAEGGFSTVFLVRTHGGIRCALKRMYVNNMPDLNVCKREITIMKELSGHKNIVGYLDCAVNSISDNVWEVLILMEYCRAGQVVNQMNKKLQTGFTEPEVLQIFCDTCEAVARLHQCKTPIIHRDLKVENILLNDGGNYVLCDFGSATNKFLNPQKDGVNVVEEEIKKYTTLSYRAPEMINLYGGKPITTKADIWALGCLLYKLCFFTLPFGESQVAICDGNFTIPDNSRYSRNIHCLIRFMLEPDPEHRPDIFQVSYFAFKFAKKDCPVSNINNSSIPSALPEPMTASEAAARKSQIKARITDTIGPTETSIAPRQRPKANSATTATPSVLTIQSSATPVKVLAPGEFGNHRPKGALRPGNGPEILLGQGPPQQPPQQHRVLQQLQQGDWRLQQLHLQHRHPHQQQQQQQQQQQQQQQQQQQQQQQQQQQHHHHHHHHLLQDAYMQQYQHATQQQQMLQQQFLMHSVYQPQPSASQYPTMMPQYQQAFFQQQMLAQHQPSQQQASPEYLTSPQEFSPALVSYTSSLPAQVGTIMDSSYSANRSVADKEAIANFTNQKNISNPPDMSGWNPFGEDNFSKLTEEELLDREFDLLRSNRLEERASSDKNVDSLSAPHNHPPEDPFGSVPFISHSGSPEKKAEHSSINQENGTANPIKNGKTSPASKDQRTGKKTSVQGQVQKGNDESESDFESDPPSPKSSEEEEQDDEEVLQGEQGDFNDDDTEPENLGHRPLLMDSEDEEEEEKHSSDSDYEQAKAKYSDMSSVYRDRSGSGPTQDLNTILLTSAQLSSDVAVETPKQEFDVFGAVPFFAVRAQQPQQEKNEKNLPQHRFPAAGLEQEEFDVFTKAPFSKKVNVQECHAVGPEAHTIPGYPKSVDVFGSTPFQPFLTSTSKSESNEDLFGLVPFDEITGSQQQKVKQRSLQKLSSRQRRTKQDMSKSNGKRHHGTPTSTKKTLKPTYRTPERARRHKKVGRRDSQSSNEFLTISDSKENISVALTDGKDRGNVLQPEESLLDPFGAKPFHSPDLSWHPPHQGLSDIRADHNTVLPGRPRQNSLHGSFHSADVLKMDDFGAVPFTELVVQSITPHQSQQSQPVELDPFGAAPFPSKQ

panel of 468 kinases [10] = target: T10, panel of 468 kinases (Homo sapiens, UniProt Q9NYY3); settings: PLK2; 1 μM; read-out: % control
T10 construct: purchased KINOMEscan (ScanMAX) service
T10 sequence (Q9NYY3 whole entry): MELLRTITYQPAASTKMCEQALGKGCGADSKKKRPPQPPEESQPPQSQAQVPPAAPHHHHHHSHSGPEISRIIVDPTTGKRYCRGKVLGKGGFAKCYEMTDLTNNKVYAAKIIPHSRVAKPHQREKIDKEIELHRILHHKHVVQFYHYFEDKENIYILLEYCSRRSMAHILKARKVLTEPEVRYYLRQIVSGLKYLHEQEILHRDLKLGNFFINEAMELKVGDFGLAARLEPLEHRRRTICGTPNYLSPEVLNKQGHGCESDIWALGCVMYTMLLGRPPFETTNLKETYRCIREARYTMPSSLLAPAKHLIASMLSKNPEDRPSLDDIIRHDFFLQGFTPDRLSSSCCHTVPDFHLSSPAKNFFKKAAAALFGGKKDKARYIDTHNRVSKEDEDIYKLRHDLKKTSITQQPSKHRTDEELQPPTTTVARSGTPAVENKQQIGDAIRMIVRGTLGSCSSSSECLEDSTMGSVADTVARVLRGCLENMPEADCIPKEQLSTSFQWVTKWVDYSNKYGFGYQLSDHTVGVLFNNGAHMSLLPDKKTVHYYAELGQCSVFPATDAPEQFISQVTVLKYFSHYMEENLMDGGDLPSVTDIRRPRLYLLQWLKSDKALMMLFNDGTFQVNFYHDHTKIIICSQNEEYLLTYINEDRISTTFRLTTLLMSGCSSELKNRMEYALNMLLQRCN

## CNc1nc(Nc2ccc(C(=O)N3CCC(N4CCOCC4)CC3)c3c2OCO3)nc2[nH]cc(Cl)c12 [Compound 75, (7-((5-chloro-4-(methylamino)-7H-pyrrolo[2,3-d]pyrimidin-2-yl)amino)benzo[d][1,3]dioxol-4-yl)(4-morpholinopiperidin-1-yl)methanone]
Panel of 468 kinases [1]
  remaining binding at 1 µM: 50%
Panel of 468 kinases [2]; RPS6KA5(Kin.Dom.1-N-terminal)
  remaining binding at 1 µM: 100%
Panel of 468 kinases [2]; RPS6KA5(Kin.Dom.2-C-terminal)
  remaining binding at 1 µM: 21%
Panel of 468 kinases [3]
  remaining binding at 1 µM: 100%
Panel of 468 kinases [4]
  remaining binding at 1 µM: 100%
Panel of 468 kinases [5]
  remaining binding at 1 µM: 100%
Panel of 468 kinases [6]
  remaining binding at 1 µM: 47%
Panel of 468 kinases [7]
  remaining binding at 1 µM: 30%
Panel of 468 kinases [8]
  remaining binding at 1 µM: 100%
Panel of 468 kinases [9]
  remaining binding at 1 µM: 40%
Panel of 468 kinases [10]
  remaining binding at 1 µM: 82%

## CNc1nc(Nc2ccc(S(=O)(=O)N3CCC(N4CCOCC4)CC3)cc2OC)nc2[nH]cc(Cl)c12 [Compound 12, 5-chloro-N2-(2-methoxy-4-((4-morpholinopiperidin-1-yl)sulfonyl)phenyl)-N4-methyl-7H-pyrrolo[2,3-d]pyrimidine-2,4-diamine]
Panel of 468 kinases [1]
  remaining binding at 1 µM: 97%
Panel of 468 kinases [2]; RPS6KA5(Kin.Dom.1-N-terminal)
  remaining binding at 1 µM: 100%
Panel of 468 kinases [2]; RPS6KA5(Kin.Dom.2-C-terminal)
  remaining binding at 1 µM: 69%
Panel of 468 kinases [3]
  remaining binding at 1 µM: 100%
Panel of 468 kinases [4]
  remaining binding at 1 µM: 100%
Panel of 468 kinases [5]
  remaining binding at 1 µM: 100%
Panel of 468 kinases [6]
  remaining binding at 1 µM: 86%
Panel of 468 kinases [7]
  remaining binding at 1 µM: 100%
Panel of 468 kinases [8]
  remaining binding at 1 µM: 100%
Panel of 468 kinases [9]
  remaining binding at 1 µM: 96%
Panel of 468 kinases [10]
  remaining binding at 1 µM: 80%

## CNc1nc(Nc2ccc(P3(=O)CCN(C4CCOCC4)CC3)cc2OC)nc2[nH]cc(Cl)c12 [Compound 77, 4-(4-((5-chloro-4-(methylamino)-7H-pyrrolo[2,3-d]pyrimidin-2-yl)amino)-3-methoxyphenyl)-1-(tetrahydro-2H-pyran-4-yl)-1,4-azaphosphinane 4-oxide]
Panel of 468 kinases [1]
  remaining binding at 1 µM: 95%
Panel of 468 kinases [2]; RPS6KA5(Kin.Dom.1-N-terminal)
  remaining binding at 1 µM: 94%
Panel of 468 kinases [2]; RPS6KA5(Kin.Dom.2-C-terminal)
  remaining binding at 1 µM: 20%
Panel of 468 kinases [3]
  remaining binding at 1 µM: 100%
Panel of 468 kinases [4]
  remaining binding at 1 µM: 100%
Panel of 468 kinases [5]
  remaining binding at 1 µM: 100%
Panel of 468 kinases [6]
  remaining binding at 1 µM: 61%
Panel of 468 kinases [7]
  remaining binding at 1 µM: 85%
Panel of 468 kinases [8]
  remaining binding at 1 µM: 100%
Panel of 468 kinases [9]
  remaining binding at 1 µM: 91%
Panel of 468 kinases [10]
  remaining binding at 1 µM: 75%
